The target in one series is T1, human α-thrombin (Homo sapiens, UniProt P00734).
T1 construct: protein cognates human α-thrombin and human α5β1-integrin immobilized on mica surfaces; purchased Abeam (so in the source)
In words: AFM force measurement: unbinding of tip-tethered affinity molecule from thrombin immobilized on mica. The format is binding. An excerpt:
(§1) The attachment chemistry was validated using the functionalized SiN tips to measure forces of affinity molecules unbinding from their respective protein cognates. The protein sample was immobilized on APS-modified mica substrate using glutaraldehyde as a crosslinker (for procedure, see Wang, et al. Biophys. J. 2002, 83, 3619-3625). Initially, about 1000 force-distance curves were collected from each of measurement experiments with either D-1b against thrombin or P-1b against integrin α5β1. The solid lines in Panel A and D of FIG. 14 show exemplary retracting force-distance curves used for data analysis, which accounts for more than one fourth of the collections. The selection was based on an assumption that a rupture directly related to unbinding of an affinity molecule from its protein cognate is likely to take place around the distance corresponding to the stretched length of a PEG linker (˜13.5 nm in this instance). A distance histogram was created from each data set (Panel B and E of FIG. 14). […] Ratios of the rupture events between these two regions were 1:1.2 for the TBA tip against the thrombin protein and 1:1.3 for the RGD tip against the integrin protein respectively. After finishing the initial measurements, a thrombin or integrin solution was injected to the flow cell accordingly, and then another set of force curves were collected to determine the specificity of unbinding (see, for example, Lee, et al. Micron 2007, 38, 446-461). A disappearance of the specific unbinding ruptures from the force-distance curves was anticipated because the interactions of the affinity molecule tethered to the tip with its cognates on the substrate were blocked by protein from the solution. In fact, force-distance curves were obtained appearing like the dotted lines in Panel A and D of FIG. 14. Overall, the ruptures around the longer distances were reduced to a great extent and those around the shorter distances remained (Panel C and F of FIG. 14) in comparison with those prior to blocking. The rupture ratios between these two regions were changed to 12.3:1 for the TBA tip against the thrombin modified surface and 12:1 for the RGD tip against the integrin modified surface.
(§2) AFM tips (a batch of four or five) were first immersed in ethanol for five minutes, dried with ultrapure argon, and then treated with ultraviolet-ozone in a Boekel UV cleaner for 15 minutes and oxygen plasma (medium power) in a Harrick Plasma Cleaner for 2 minutes. These tips were immediately placed in a petri dish, to which an aqueous solution of compound 3 (50 mM) was added. After one hour, the tips were taken out, rinsed with water thrice, and dried gently with nitrogen. […]

Series [1] deals with bovine serum albumin (BSA) (Bos taurus, UniProt P02769). In words: AFM force measurement: non-specific interaction with BSA immobilized mica. It is filed as binding. The following applies: BSA on the substrate (non-specific control). An excerpt: (§3) Non-specific interactions between functionalized AFM tips with both bare and bovine serum albumin (BSA) immobilized mica substrates were examined. The functionalized AFM tips generally formed featureless force-distance curves on these surfaces. Only 6.1% of collected curves show unbinding ruptures from the nonspecific TBA-BSA interaction (median force 14.4 pN) and 5.6% from the nonspecific RGD-BSA interaction (median force 15.3 pN) around the expected distance, respectively. The functionalized tips interacted with the bare mica surfaces with even lower statistics and smaller unbinding forces.
Freshly cleaved mica sheets (1.5×2.0 cm^2) were immersed in an aqueous solution of APS (50 mM). After one hour, the mica sheets were taken out and rinsed thoroughly with water thrice. In a humid surrounding, an aqueous solution of glutaraldehyde (1 mM, 200 μL) was added on the APS mica sheet. After 10 minutes, the mica substrates were rinsed with water thrice, and then a solution of protein in a 1×PBS buffer (3 μL) was placed on it, incubated for one hour, and rinsed with the 1×PBS buffer thrice. In general, protein concentrations were made around 10 ng/μL for force measurements and 0.05 ng/μL for recognition imaging. It should be noted that integrin we used was a lyophilized product from a solution containing: 0.26 mg/ml α5β1, 20 mM Tris-HCl pH 7.5, 150 mM NaCl, 2 mM MgCl2, 0.2% Triton X-100, which was reconstituted by dissolving it in 1×PBS buffer.
(§4) An Agilent AFM 5500 (with inverted light microscope) system was used for the AFM experiments. Both force measurement and recognition imaging were carried out in 1×PBS buffer (pH 7.4). For force measurements, Veeco probes (Bicker, SiN tips) were used, having a force constant 0.05 N/m and a gold back coating, and the loading rate was 25000 pN/s.
(§5) Topography images, recognition images and force spectra were recorded using Agilent PicoView software. The force-distance curves were analyzed in PicoView, and the corresponding unbinding forces were plotted in the form of histograms and fitted into the Gaussian function using MathWorks-MATLAB.

Series [2] is described as follows: AFM force measurement: non-specific interaction with bare mica. The format is binding. The conditions noted are these: bare mica substrate.
From the text: as §3, §4, §5

A short description of series [3]: Water contact angle of derivatized silicon oxide surfaces. It is filed as physicochemical. The conditions noted are these: water on derivatized silicon oxide surface. The protocol:
(§6) A silicon substrate (1×1 cm2) was cleaned thoroughly with ethanol, dried by nitrogen, and then treated with oxygen plasma for two minutes using Harrick Plasma Cleaner (medium power). APTES was deposited on the substrate using a vapor deposition method (H. Wang, et al. Biophys. J., 2002, 83, 3619-3625). The aminated substrate was immersed in a solution of compound 2 (1 mg/mL). NHS/EDC (1 mg each) and triethyl amine (5 μL) in dry dicholoromethane. After three hours, the substrates were taken out and rinsed with dry dichloromethane (twice) followed by ethanol (twice) and dried with argon.
(§7) A silicon substrate (1×1 cm2) was cleaned as described with respect to reactions 1-a nd 1-b, and then immersed in an aq. solution of silatrane derivative 3 (50 mM). After one hour, the substrates were taken out and rinsed five times with deionized water and dried with argon.
(§8) Contact angles were measured using Kruss EasyDrop. For the measurement, 2 μL of water droplets were deposited on different positions of a substrate placed on the sample plate and contact angles were measured in the video window of manufacturer's DSA software. Thicknesses of the monolayers were measured using Gaertner Scientific Corporation ellipsometer. For the thickness calculation, the refractive indices of both silicon oxide layers and organic layers were assumed to be 1.46 (T. Nguyen et al. J. Adhesion, 1995, 48, 169-194). Five different arbitrary positions on the substrate were chosen and the average value was taken. The thickness of the monolayer was determined by subtracting the silicon oxide thickness from the measured one.

Series [4] can be described thus: Ellipsometric thickness of monolayers on silicon oxide. The conditions noted are these: organic layer on silicon oxide, ellipsometry. The format is physicochemical. The protocol:
as §6, §7, §8

For another series, the target named is T2, human α5β1 integrin (Homo sapiens, UniProt P05556+P08648).
T2 construct: purchased YO Proteins AB (Sweden)
Kind of series: AFM force measurement: unbinding of tip-tethered affinity molecule from integrin immobilized on mica. It is filed as binding.
From the text: as §1, §2

For the next series, the target named is T3, thrombin (Homo sapiens, UniProt P00734).
T3 construct: protein cognates human α-thrombin and human α5β1-integrin immobilized on mica surfaces; purchased Abeam (so in the source)
Kind of series: AFM recognition imaging of thrombin on mica. It is filed as binding. The conditions noted are these: conjugate on Ni-coated MacMode silicon tip; protein 50 pg/μL. An excerpt:
The AFM based recognition imaging is an effective tool for clinical diagnostics. The attachment and click chemistry of the disclosure works well in combination with the RI technique. Prior to this disclosure, the recognition imaging of clinically relevant proteins thrombin and integrin had not been reported. […] Linker 6a was tailored for RI. Its conjugate D-1a or P-1a was attached to Ni-coated MacMode tips (from Nanoworld) following the same protocol above mentioned. The protein samples (thrombin or α5β1 integrin) were deposited on mica using the same glutaraldehyde chemistry. However, the optimal protein concentration (50 pg/μL in 1×PBS buffer, pH 7.4) for the RI was […] lower than that for the force measurements, which was pre-determined by imaging the surface with bare AFM tips in the air mode, ensuring that the protein molecules were well distributed in a predefined area. For one measurement, only […] of protein sample is needed in the current setup. Thus, a few femtomoles of proteins can readily be detected by the AFM based recognition imaging. […] RI simultaneously produces both topographic and recognition images. Each bright round spot in the topographic image represents a protein molecule (thrombin in Panel A and integrin in panel D of FIG. 16). […]

The mark [5] stands for this setting: tip blocked with thrombin solution, thrombin on mica.
[6] abbreviates: tip blocked with integrin solution, integrin on mica.

Experimental findings from patent US9981997B2, “Chemical reagents for attaching affinity molecules on surfaces” (ARIZONA BOARD OF REGENTS ON BEHALF OF ARIZONA STATE …, priority 2013, dated 2018) are described below.

“And” between values parts separate entries of the source, which are not always exact repeats. Identical values can stand only once.

bovine serum albumin (BSA), sequence (P02769 25-607): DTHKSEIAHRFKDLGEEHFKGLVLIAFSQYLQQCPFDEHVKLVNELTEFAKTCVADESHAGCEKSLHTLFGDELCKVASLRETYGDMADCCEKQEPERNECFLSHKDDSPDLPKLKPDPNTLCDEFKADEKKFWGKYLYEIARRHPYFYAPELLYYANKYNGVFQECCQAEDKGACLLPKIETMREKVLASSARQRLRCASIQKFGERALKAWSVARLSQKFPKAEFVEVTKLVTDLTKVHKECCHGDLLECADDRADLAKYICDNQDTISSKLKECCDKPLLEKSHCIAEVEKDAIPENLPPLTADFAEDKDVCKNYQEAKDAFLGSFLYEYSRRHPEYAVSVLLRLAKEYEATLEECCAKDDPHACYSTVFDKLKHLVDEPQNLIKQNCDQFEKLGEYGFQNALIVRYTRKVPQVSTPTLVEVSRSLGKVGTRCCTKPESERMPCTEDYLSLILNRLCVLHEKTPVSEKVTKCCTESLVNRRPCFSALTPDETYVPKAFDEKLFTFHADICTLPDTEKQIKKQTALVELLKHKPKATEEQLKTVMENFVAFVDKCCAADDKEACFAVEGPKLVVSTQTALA
T2 sequence (P08648 42-894 limits assumed): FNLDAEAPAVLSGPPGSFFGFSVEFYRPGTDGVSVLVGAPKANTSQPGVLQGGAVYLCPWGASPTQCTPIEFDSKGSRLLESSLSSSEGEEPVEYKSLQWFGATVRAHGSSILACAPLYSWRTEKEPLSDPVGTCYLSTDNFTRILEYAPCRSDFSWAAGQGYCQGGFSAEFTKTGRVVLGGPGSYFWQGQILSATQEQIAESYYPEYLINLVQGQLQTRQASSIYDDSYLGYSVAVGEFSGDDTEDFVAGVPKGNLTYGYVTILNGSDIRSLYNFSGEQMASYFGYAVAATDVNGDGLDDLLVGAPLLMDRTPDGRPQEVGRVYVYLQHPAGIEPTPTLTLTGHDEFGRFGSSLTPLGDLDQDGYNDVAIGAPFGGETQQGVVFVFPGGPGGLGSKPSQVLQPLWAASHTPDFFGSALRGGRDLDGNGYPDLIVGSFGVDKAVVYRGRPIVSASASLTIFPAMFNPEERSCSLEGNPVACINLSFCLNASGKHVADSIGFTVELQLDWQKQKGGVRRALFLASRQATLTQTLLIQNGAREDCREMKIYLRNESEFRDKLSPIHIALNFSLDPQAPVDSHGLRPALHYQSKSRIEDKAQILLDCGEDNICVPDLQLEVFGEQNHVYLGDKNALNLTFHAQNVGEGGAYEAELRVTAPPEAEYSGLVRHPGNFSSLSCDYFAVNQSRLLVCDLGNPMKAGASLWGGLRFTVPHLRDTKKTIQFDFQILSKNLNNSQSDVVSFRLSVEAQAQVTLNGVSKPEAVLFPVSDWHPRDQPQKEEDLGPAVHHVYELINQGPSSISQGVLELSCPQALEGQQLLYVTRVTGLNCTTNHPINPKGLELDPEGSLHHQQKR
T2 sequence (P08648 895-1049 partner limits assumed): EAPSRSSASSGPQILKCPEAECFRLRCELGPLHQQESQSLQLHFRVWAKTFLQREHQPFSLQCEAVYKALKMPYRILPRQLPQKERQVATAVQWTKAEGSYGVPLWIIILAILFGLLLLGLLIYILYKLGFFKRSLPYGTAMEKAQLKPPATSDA
T2 sequence (P05556 21-798): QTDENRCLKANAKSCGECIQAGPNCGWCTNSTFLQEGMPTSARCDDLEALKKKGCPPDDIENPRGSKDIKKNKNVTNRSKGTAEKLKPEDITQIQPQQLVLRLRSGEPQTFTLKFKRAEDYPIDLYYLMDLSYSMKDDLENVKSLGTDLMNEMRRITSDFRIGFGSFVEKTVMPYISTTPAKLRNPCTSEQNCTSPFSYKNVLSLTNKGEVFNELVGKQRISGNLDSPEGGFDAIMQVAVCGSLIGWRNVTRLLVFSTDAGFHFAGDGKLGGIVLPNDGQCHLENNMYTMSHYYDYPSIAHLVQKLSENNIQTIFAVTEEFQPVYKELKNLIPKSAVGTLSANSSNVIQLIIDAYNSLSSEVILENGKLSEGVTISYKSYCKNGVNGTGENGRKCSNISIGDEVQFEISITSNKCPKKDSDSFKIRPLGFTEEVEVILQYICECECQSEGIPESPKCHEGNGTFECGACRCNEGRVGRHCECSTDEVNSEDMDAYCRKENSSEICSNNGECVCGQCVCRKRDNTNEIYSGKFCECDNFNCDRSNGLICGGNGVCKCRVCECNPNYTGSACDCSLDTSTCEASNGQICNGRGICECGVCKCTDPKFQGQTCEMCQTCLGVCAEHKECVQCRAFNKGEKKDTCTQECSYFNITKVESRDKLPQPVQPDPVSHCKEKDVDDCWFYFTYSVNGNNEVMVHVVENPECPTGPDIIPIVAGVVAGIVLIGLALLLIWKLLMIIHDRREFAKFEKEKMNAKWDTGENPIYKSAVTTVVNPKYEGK

As to 5′-GGTTGGTGTGGTTGG [TBA], the “Unbinding force (pN)” value was 80.2 ± 34.5 pN with human α-thrombin (functionalized SiN tip against thrombin on mica, Gaussian fit of force histogram, loading rate 25000 pN/s); 15.6 ± 12.9 pN in the series with human α-thrombin (setting [5]); 14.4 pN and 14.4 ± 9.4 pN in series [1]; 6.9 ± 3.8 pN in series [2]. The “Unbinding events (%)” value in the series with human α-thrombin (functionalized SiN tip against thrombin on mica, ruptures around the specific unbinding distance over total force curves) is 26.5%; with human α-thrombin (setting [5]), 7.0%; in series [1] it was 6.1%; in series [2], 3.0%.
Take `CCO[Si](CCCN)(OCC)OCC` [APTES, (3-Arninopropyl)triethoxysilane]: the “Contact Angle (°)” value in series [3] was roughly 46 °. For the same compound, the “Thickness (Å)” value in series [4] was “about 7.3 Å”.
In the case of cyclo(RGDfC), the “Unbinding events (%)” value on human α5β1 integrin (functionalized SiN tip against integrin on mica) worked out at 29.4%; at human α5β1 integrin (setting [6]), 6.7%; in series [1] it was 5.6%; in series [2] it was 2.5%. In addition, the “Unbinding force (pN)” value is 48.0 ± 27.8 pN on human α5β1 integrin (functionalized SiN tip against integrin on mica, Gaussian fit, loading rate 25000 pN/s); 11.1 ± 10.7 pN at human α5β1 integrin (setting [6]); 15.3 pN and 15.3 ± 14.4 pN in series [1]; 6.7 ± 4.0 pN in series [2].
Turning to “D-1a: thrombin-binding DNA aptamer 5′-GGTTGGTGTGGTTGG, 3′-thiol, joined to PEG linker 6a by Michael addition (DNA, backbone not given here; 3'-thiol joined to PEG linker 6a by Michael addition)”, in the series with thrombin, the “recognition of thrombin (topography vs recognition image)” value is given as “About 77%”.
Consider `O=C(COC1C#CCCCCC1)NCCC[Si-]123OCC[N+]1(CCO2)CCO3` (centres unmarked) [compound 3, N-(3-(silatranyl)propyl)-2-(cyclooct-2-yn-1-yloxy)acetamide], for which, in series [3], the “Contact Angle (°)” value is recorded as roughly 78 °. Besides, the “Thickness (Å)” value in series [4] is on record as 15.3 Å.
For `O=C(O)COC1C#CCCCCC1` (centres unmarked) [compound 2, 2-(cyclooct-2-yn-1-yloxy)acetic acid], in series [3], the “Contact Angle (°)” value is on record as 76 °. Moreover, the “Thickness (Å)” value in series [4] was roughly 15.9 Å.
